pIC50: −log10 of the molar value.

Test [1] has as its target T1, human recombinant 15-PGDH (Homo sapiens, UniProt P15428).
T1 sequence (P15428 1-266): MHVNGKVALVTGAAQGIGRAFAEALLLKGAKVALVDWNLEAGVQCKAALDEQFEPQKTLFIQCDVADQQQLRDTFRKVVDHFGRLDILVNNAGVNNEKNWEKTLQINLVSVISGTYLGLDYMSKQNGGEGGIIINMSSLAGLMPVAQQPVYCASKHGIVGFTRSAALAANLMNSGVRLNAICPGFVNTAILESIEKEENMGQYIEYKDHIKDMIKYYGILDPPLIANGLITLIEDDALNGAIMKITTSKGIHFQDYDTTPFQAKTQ
The test can be described thus: Recombinant 15-PGDH enzymatic inhibition assay (PGDH-Lumi, NADH signal). The format is biochemical. The note with it: recombinant 15-PGDH; 15 min pre-incubation, 60 min reaction with PGE2 and NAD+, NADH signal. In outline:
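Recombinant 15-PGDH pre-incubated 15 min at room temperature with compound (22 concentrations, 2-fold dilutions) in 50 mM Tris pH 7.5, 0.01% Tween-20, […].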

A further test concerns the target T2, 15-PGDH in A549 cells (Homo sapiens, UniProt P15428).
T2 construct: endogenous in cells; host or cells: A549
T2 sequence (P15428 1-266): T1 sequence (P15428 1-266)
As to the kind of experiment: A549 cellular 15-PGDH assay (PGE2 accumulation, HTRF). The format is cell-based. The note with it: interleukin-stimulated, inhibitor 24 hrs, PGE2 by competitive HTRF, read-out: A549 Cell Assay IC50. In short, it runs like this:
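IL-13-stimulated A549 lung carcinoma cells released PGE2, which was measured in supernatants by competitive HTRF with a Eu-cryptate anti-PGE2 antibody and labelled PGE2. Signal falls as PGE2 rises. IC50 values were derived from the binding data.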
(In TR-FRET formats the signal depends on donor and acceptor labels being close together.)

What is called pIC50 is the negative decadic logarithm of the IC50, by convention in mol/L. With `Cn1cc2cc(-c3ccc4cc([C@H](O)C5CC5)sc4n3)cnc2n1` (single isomer, unassigned) [Compound B16R], the pIC50 in test [1] is 9.49; at 15-PGDH in A549 cells, 9.83.
On to `Cn1cc2cc(-c3ccc4cc(C(O)[C@H]5CCOC5)sc4n3)cnc2n1` (single isomer, unassigned) [B19(RS)S], for which the pIC50 is 9.20 in test [1] and 8.99 at 15-PGDH in A549 cells.
Taken in the same sequence, the figures for `Cn1cc2cc(-c3ccc4nc([C@]5(O)C[C@@]6(CC6(F)F)C5)sc4n3)cnc2n1` (single isomer, unassigned) [Compound C115T, trans-1,1-difluoro-5-(5-(2-methyl-2H-pyrazolo[3,4-b]pyridin-5-yl)[1,3]thiazolo[5,4-b]pyridin-2-yl)spiro[2.3]hexan-5-ol] were 9.29 and 8.86.
Taken in the same sequence, the figures for `Cn1cc2cc(-c3ccc4cc([C@@H](O)[C@@H]5CCOC5)sc4n3)cnc2n1` (single isomer, unassigned) [Compound B19SR] were 8.73 and 8.45.
As for `Cn1cc2cc(-c3ccc4ccc([C@H](O)C5CCOCC5)cc4n3)cnc2n1` (single isomer, unassigned) [Compound D4R], the negative logarithm of the IC50 (pIC50) was 6.61 in test [1] and 6.73 at 15-PGDH in A549 cells.
The like results for `Cn1cc2cc(-c3cc(-c4ccnn4C)c4cc(C(O)C5CCC5)sc4n3)cnc2n1` (centres unmarked) [Compound B2, cyclobutyl(6-(2-methyl-2H-pyrazolo[3,4-b]pyridin-5-yl)-4-(1-methyl-1H-pyrazol-5-yl)thieno[2,3-b]pyridin-2-yl)methanol] were, in that order, 8.82 and 8.98.
Taken in the same sequence, the figures for `CC(O)c1cc2c(C3CC3)cc(-c3cnc4nn(C)cc4c3)nc2s1` (centres unmarked) [Compound B11, 1-(4-cyclopropyl-6-(2-methyl-2H-pyrazolo[3,4-b]pyridin-5-yl)thieno[2,3-b]pyridin-2-yl)ethanol] were 8.15 and 7.50.
Take `O[C@@H](c1cc2ccc(-c3cnc4[nH]ncc4c3)nc2s1)C1CC(F)(F)C1` (single isomer, unassigned) [Compound B47R]: the pIC50 was 9.68 in test [1] and 9.44 on 15-PGDH in A549 cells.
With `Cn1cc2cc(-c3ccc4nc([C@]5(O)C[C@]6(CC6(F)F)C5)sc4n3)cnc2n1` (single isomer, unassigned) [Compound C115C, cis-1,1-difluoro-5-(5-(2-methyl-2H-pyrazolo[3,4-b]pyridin-5-yl)[1,3]thiazolo[5,4-b]pyridin-2-yl)spiro[2.3]hexan-5-ol], the pIC50 in test [1] is 9.41; on 15-PGDH in A549 cells it was 9.01.
Taken in the same sequence, the figures for `Cc1nc2cc(-c3ccc4cc(C5(O)CC(F)(F)C5)sc4n3)cnc2[nH]1` [Compound C35, 3,3-difluoro-1-(6-(2-methyl-3H-imidazo[4,5-b]pyridin-6-yl)thieno[2,3-b]pyridin-2-yl)cyclobutanol] were 9.08 and 8.87.
Taken in the same sequence, the figures for `CC(C)n1ncc2cc(-c3ccc4cc(C(O)C5CC(F)(F)C5)sc4n3)cnc21` (centres unmarked) [Compound B65, (3,3-difluorocyclobutyl)(6-(1-(2-propanyl)-1H-pyrazolo[3,4-b]pyridin-5-yl)thieno[2,3-b]pyridin-2-yl)methanol] were 9.03 and 9.36.
On to `Cn1cc2cc(-c3ccc4cc(C(O)C(F)(F)F)sc4n3)cnc2n1` (centres unmarked) [Compound B23, 2,2,2-trifluoro-1-(6-(2-methyl-2H-pyrazolo[3,4-b]pyridin-5-yl)thieno[2,3-b]pyridin-2-yl)ethanol], for which the values for the negative logarithm of the IC50 (pIC50) (in test [1]; at 15-PGDH in A549 cells) were 9.47 and 8.85, respectively.
The like results for `Cn1ncc2cc(-c3ccc4cc([C@H](O)C5CCOCC5)sc4n3)cnc21` (single isomer, unassigned) [Compound B35R] were, in that order, 8.96 and 7.74.
The like results for `Cc1c([C@H](O)C2CCOCC2)sc2nc(-c3cnc4c(c3)nnn4C)ccc12` (single isomer, unassigned) [Compound B89R] were, in that order, 8.75 and 8.32.
On to `C[C@@H](O)c1cc2c(-c3ccnn3C)cc(-c3cnc4nn(C)cc4c3)nc2s1` (single isomer, unassigned) [Compound B6R], for which the pIC50 in test [1] was 8.74; at 15-PGDH in A549 cells, 8.31.
The like results for `Cn1cc2cc(-c3ncc4cc([C@]5(O)C[C@@]6(CC6(F)F)C5)sc4n3)cnc2n1` (single isomer, unassigned) [Compound C114T, trans-1,1-difluoro-5-(2-(2-methyl-2H-pyrazolo[3,4-b]pyridin-5-yl)thieno[2,3-d]pyrimidin-6-yl)spiro[2.3]hexan-5-ol] were, in that order, 9.31 and 9.17.
Taken in the same sequence, the figures for `Cc1c(C2(O)CC(F)(F)C2)sc2nc(-c3cnc4nn(C)cc4c3)ccc12` [Compound C77, 3,3-difluoro-1-(3-methyl-6-(2-methyl-2H-pyrazolo[3,4-b]pyridin-5-yl)thieno[2,3-b]pyridin-2-yl)cyclobutanol] were 8.11 and 8.04.
With `CC(C)n1cc2cc(-c3ccc4cc(C(O)C5CC(F)(F)C5)sc4n3)ccc2n1` (centres unmarked) [Compound B56, (3,3-difluorocyclobutyl)(6-(2-(2-propanyl)-2H-indazol-5-yl)thieno[2,3-b]pyridin-2-yl)methanol], the pIC50 was 8.94 in test [1] and 8.49 at 15-PGDH in A549 cells.
For the compound `Cc1cn2ccc(-c3ccc4cc([C@@H](O)C5CC(F)(F)C5)sc4n3)cc2n1` (single isomer, unassigned) [Compound B55S], the pIC50 was 8.58 in test [1] and 7.93 on 15-PGDH in A549 cells.
The like results for `C[C@H](O)c1cc2c(-c3ccnn3C)cc(-c3cnc4nn(C)cc4c3)nc2s1` (single isomer, unassigned) [Compound B6S] were, in that order, 7.05 and 6.99.
The like results for `CCn1cc2cc(-c3ccc4cc(C5(O)CC(F)(F)C5)sc4n3)cnc2n1` [Compound C32, 1-(6-(2-ethyl-2H-pyrazolo[3,4-b]pyridin-5-yl)thieno[2,3-b]pyridin-2-yl)-3,3-difluorocyclobutanol] were, in that order, 9.43 and 9.59.
Take `Cc1cn2cc(-c3ccc4cc([C@]5(O)C[C@@H](C(F)F)C5)sc4n3)cnc2n1` [Compound C97C, cis-3-(difluoromethyl)-1-(6-(2-methylimidazo[1,2-a]pyrimidin-6-yl)thieno[2,3-b]pyridin-2-yl)cyclobutanol]: the pIC50 in test [1] is 9.48; at 15-PGDH in A549 cells, 8.84.
On to `Cn1cc2cc(-c3ccc4nc([C@]5(O)C[C@](C)(C#N)C5)sc4n3)cnc2n1` (single isomer, unassigned) [Compound C91T, trans-3-hydroxy-1-methyl-3-(5-(2-methyl-2H-pyrazolo[3,4-b]pyridin-5-yl)[1,3]thiazolo[5,4-b]pyridin-2-yl)cyclobutanecarbonitrile], for which the results for the pIC50 (in test [1]; on 15-PGDH in A549 cells) were 8.67 and 8.23, respectively.
For the compound `Cn1nnc2cc(-c3ccc4ccc([C@@H](O)C5CCOCC5)cc4n3)cnc21` (single isomer, unassigned) [Compound D3S], the pIC50 in test [1] is 4.94; on 15-PGDH in A549 cells, less than 6.12.
The like results for `O[C@@H](c1cc2ccc(-c3ccc4nccnc4c3)nc2s1)C1CC(F)(F)C1` (single isomer, unassigned) [Compound B52R] were, in that order, 9.54 and 9.16.
The like results for `OC1(c2cc3ccc(-c4ccc5[nH]ncc5c4)nc3s2)CC(F)(F)C1` [Compound C42, 3,3-difluoro-1-(6-(1H-indazol-5-yl)thieno[2,3-b]pyridin-2-yl)cyclobutanol] were, in that order, 7.62 and 8.17.
The like results for `Cn1cnc2cc(-c3ccc4cc(C5(O)CC(F)(F)C5)sc4n3)cnc21` [Compound C33, 3,3-difluoro-1-(6-(3-methyl-3H-imidazo[4,5-b]pyridin-6-yl)thieno[2,3-b]pyridin-2-yl)cyclobutanol] were, in that order, 8.59 and 8.97.
In the case of `CO[C@]1(C(F)(F)F)C[C@@](O)(c2cc3ccc(-c4cnc5nn(C)cc5c4)nc3s2)C1` (single isomer, unassigned) [Compound C66C, cis-3-methoxy-1-(6-(2-methyl-2H-pyrazolo[3,4-b]pyridin-5-yl)thieno[2,3-b]pyridin-2-yl)-3-(trifluoromethyl)cyclobutanol], the pIC50 in test [1] is 9.07; on 15-PGDH in A549 cells, 9.69.
`Cn1cc2cc(-c3ccc4cc([C@]5(O)C[C@@](C)(C#N)C5)sc4n3)cnc2n1` [Compound C63C, cis-3-hydroxy-1-methyl-3-(6-(2-methyl-2H-pyrazolo[3,4-b]pyridin-5-yl)thieno[2,3-b]pyridin-2-yl)cyclobutanecarbonitrile]: the pIC50 is 9.37 in test [1] and 9.94 on 15-PGDH in A549 cells.
As to `Cn1cc2cc(-c3ccc4cc([C@H](O)[C@@H]5CCOC5)sc4n3)cnc2n1` (single isomer, unassigned) [Compound B19RR], the pIC50 in test [1] was 9.61; at 15-PGDH in A549 cells it was 9.42.
The like results for `CO[C@]1(C)C[C@@](O)(c2cc3cnc(-c4cnc5nn(C)cc5c4)nc3s2)C1` (single isomer, unassigned) [Compound C118C, cis-3-methoxy-3-methyl-1-(2-(2-methyl-2H-pyrazolo[3,4-b]pyridin-5-yl)thieno[2,3-d]pyrimidin-6-yl)cyclobutanol] were, in that order, 9.25 and 8.66.
